Measurements published in patent publication US9573972B2, “Nurotoxic sterol glycosides” (priority 2008, dated 2017).
“Also recorded” adds a separate entry of the source.

Assays:
[1] = Body weights of SG-fed mice; assay type: in vivo, mouse; settings: SG-fed vs age-matched controls; SG 1000 μg per pellet daily for 15 weeks
Text: Five-month old male CD-1 mice (30.1-35.7 g, 7.5 cm-8.8 cm) were purchased from Charles River (Wilmington, Mass.). Adult mice were chosen to mimic the mean age of onset of ALS-PDC (Kurland, L. T. (1988a) Trends Neurosci. 11, 51-4; Kurland, L. T., et al. (1994) Amyotrophic lateral sclerosis-parkinsonism-dementia complex on Guam: epidemiologic and etiological perspectives. 109-131). Thirty mice for the SG study were randomly divided into 2 groups (14 control and 16 experimental animals). All animals were housed singly in a virus-free barrier facility in a room maintained at 22° C. under a 12 hour light/dark cycle. The mice were provided ad libitum access to food and water.
The synthetic SG was mixed with finely ground Purina Chow mouse pellets (Mouse Diet™, Purina) to create the experimental pellets with a SG content of 1000 μg per pellet. Dry materials were blended with a sterile silicon spatula. For every 5 g of standard feed, 2.5 mL of doubly-distilled water (dd)H2O was added and the dough was kneaded and round up into pellets. A single sterol glucoside containing pellet was placed in the feeding tray each morning before the addition of regular mouse chow (ad libitum). All experimental pellets were entirely consumed by the mice each day. […] SG feeding was conducted daily for 15 weeks and mice were behaviorally monitored until sacrifice at 35 weeks (time point 1) or 52 weeks (time point 2).

Active Caspase-3 = test: Anti-active caspase-3 immunofluorescence; assay type: in vivo, mouse
Protocol: Tissue-mounted slides were processed for fluorescence microscopy as follows: Sections were rinsed in coplin jars for 45 minutes at room temperature (RT) in three changes of PBS. Sections were then incubated at RT for 30 minutes in a blocking permeabilization solution made of 5% normal goat serum (NGS), 5% normal rabbit serum (NRS) or 5% BlokHen II (Ayes Labs, Inc., Tigard, Oreg.), 0.05% Triton X-100 and PBS. Subsequently, the blocking solution was tipped off and the slides were rinsed in PBS for 2 minutes. […]

## CC[C@H](/C=C/[C@@H](C)[C@H]1CC[C@H]2[C@@H]3CC=C4C[C@@H](O[C@@H]5O[C@H](CO)[C@@H](O)[C@H](O)[C@H]5O)CC[C@]4(C)[C@H]3CC[C@]12C)C(C)C [SG, Stigmasterol β-D-Glucopyranoside]
[1]
  Body weights: normal weight gain; also recorded: not significantly different
Active Caspase-3; SG-fed group over time (35 to 52 wk)
  Apoptotic cells over time: Apoptotic cells (SG-fed group over time) (ns)
Active Caspase-3; SG-fed vs control, Time-point 2 (52 wk)
  Anti-active caspase 3 immunoreactive cells: did not reach significance and (ns)
